Measurements from ChEMBL document CHEMBL1155521, “Synthesis and antibacterial activity of novel 4''-O-arylalkylcarbamoyl and 4''-O-((arylalkylamino)-4-oxo-butyl)carbamoyl clarithromycin derivatives” (2010).
≈ marks a conversion by molar mass, not a printed value.

Experiments:
Format in all cases: functional
Streptococcus pneumoniae [1] = experiment: Antibacterial activity against erythromycin-susceptible Streptococcus pneumoniae ATCC 49619 by broth microdilution method
Streptococcus pneumoniae [2] = experiment: Antibacterial activity against erythromycin-resistant Streptococcus pneumoniae B1 expressing erm gene by broth microdilution method
Streptococcus pneumoniae [3] = experiment: Antibacterial activity against erythromycin-resistant Streptococcus pneumoniae AB1-1 expressing erm and mef gene by broth microdilution method
Streptococcus pneumoniae [4] = experiment: Antibacterial activity against erythromycin-resistant Streptococcus pneumoniae A22072 expressing mef gene by broth microdilution method

Structure (SMILES)	MIC (Streptococcus pneumoniae [1]) [mg/L]	MIC (Streptococcus pneumoniae [2]) [mg/L]	MIC (Streptococcus pneumoniae [3]) [mg/L]	MIC (Streptococcus pneumoniae [4]) [mg/L]
CC[C@H]1OC(=O)[C@H](C)[C@@H](O[C@H]2C[C@@](C)(OC)[C@@H](OC(=O)NCCCC(=O)NCc3ccc(OC)cc3)[C@H](C)O2)[C@H](C)[C@@H](O[C@@H]2O[C@H](C)C[C@H](N(C)C)[C@H]2O)[C@](C)(OC)C[C@@H](C)C(=O)[C@H](C)[C@@H](O)[C@]1(C)O	0.03 (≈ 0.0301 µM)	0.06 (≈ 0.0602 µM)	1 (≈ 1 µM)	0.25 (≈ 0.251 µM)
CC[C@H]1OC(=O)[C@H](C)[C@@H](O[C@H]2C[C@@](C)(OC)[C@@H](OC(=O)NCCc3ccccc3)[C@H](C)O2)[C@H](C)[C@@H](O[C@@H]2O[C@H](C)C[C@H](N(C)C)[C@H]2O)[C@](C)(OC)C[C@@H](C)C(=O)[C@H](C)[C@@H](O)[C@]1(C)O	0.06 (≈ 0.067 µM)	16 (≈ 17.9 µM)	32 (≈ 35.7 µM)	0.5 (≈ 0.559 µM)
CC[C@H]1OC(=O)[C@H](C)[C@@H](O[C@H]2C[C@@](C)(OC)[C@@H](OC(=O)NCCCC(=O)NCCc3ccc(O)cc3)[C@H](C)O2)[C@H](C)[C@@H](O[C@@H]2O[C@H](C)C[C@H](N(C)C)[C@H]2O)[C@](C)(OC)C[C@@H](C)C(=O)[C@H](C)[C@@H](O)[C@]1(C)O	0.03 (≈ 0.0301 µM)	0.25 (≈ 0.251 µM)	1 (≈ 1 µM)	0.5 (≈ 0.502 µM)
CC[C@H]1OC(=O)[C@H](C)[C@@H](O[C@H]2C[C@@](C)(OC)[C@@H](O)[C@H](C)O2)[C@H](C)[C@@H](O[C@@H]2O[C@H](C)C[C@H](N(C)C)[C@H]2O)[C@](C)(OC)C[C@@H](C)C(=O)[C@H](C)[C@@H](O)[C@]1(C)O [CLARITHROMYCIN]	0.03 (≈ 0.0401 µM)	64 (≈ 85.6 µM)	128 (≈ 171 µM)	4 (≈ 5.35 µM)
CC[C@H]1OC(=O)[C@H](C)[C@@H](O[C@H]2C[C@@](C)(OC)[C@@H](OC(=O)NCCCC(=O)NCc3ccccc3)[C@H](C)O2)[C@H](C)[C@@H](O[C@@H]2O[C@H](C)C[C@H](N(C)C)[C@H]2O)[C@](C)(OC)C[C@@H](C)C(=O)[C@H](C)[C@@H](O)[C@]1(C)O	0.03 (≈ 0.031 µM)	2 (≈ 2.07 µM)	0.25 (≈ 0.259 µM)	0.5 (≈ 0.517 µM)
CC[C@H]1OC(=O)[C@H](C)[C@@H](O[C@H]2C[C@@](C)(OC)[C@@H](OC(=O)NCCc3ccc4c(c3)OCO4)[C@H](C)O2)[C@H](C)[C@@H](O[C@@H]2O[C@H](C)C[C@H](N(C)C)[C@H]2O)[C@](C)(OC)C[C@@H](C)C(=O)[C@H](C)[C@@H](O)[C@]1(C)O	0.06 (≈ 0.0639 µM)	32 (≈ 34.1 µM)	64 (≈ 68.1 µM)	0.25 (≈ 0.266 µM)
CC[C@H]1OC(=O)[C@H](C)[C@@H](O[C@H]2C[C@@](C)(OC)[C@@H](OC(=O)NCc3ccc(OC)cc3)[C@H](C)O2)[C@H](C)[C@@H](O[C@@H]2O[C@H](C)C[C@H](N(C)C)[C@H]2O)[C@](C)(OC)C[C@@H](C)C(=O)[C@H](C)[C@@H](O)[C@]1(C)O	0.03 (≈ 0.0329 µM)	16 (≈ 17.6 µM)	32 (≈ 35.1 µM)	0.25 (≈ 0.274 µM)
CC[C@H]1OC(=O)[C@H](C)[C@@H](O[C@H]2C[C@@](C)(OC)[C@@H](O)[C@H](C)O2)[C@H](C)[C@@H](O[C@@H]2O[C@H](C)C[C@H](N(C)C)[C@H]2O)[C@](C)(O)C[C@@H](C)C(=O)[C@H](C)[C@@H](O)[C@]1(C)O [ERYTHROMYCIN]	0.03 (≈ 0.0409 µM)	128 (≈ 174 µM)	256 (≈ 349 µM)	8 (≈ 10.9 µM)
CC[C@H]1OC(=O)[C@H](C)[C@@H](O[C@H]2C[C@@](C)(OC)[C@@H](OC(=O)NCCCC(=O)NCCc3ccccc3Cl)[C@H](C)O2)[C@H](C)[C@@H](O[C@@H]2O[C@H](C)C[C@H](N(C)C)[C@H]2O)[C@](C)(OC)C[C@@H](C)C(=O)[C@H](C)[C@@H](O)[C@]1(C)O	0.03 (≈ 0.0296 µM)	32 (≈ 31.5 µM)	32 (≈ 31.5 µM)	1 (≈ 0.986 µM)
CC[C@H]1OC(=O)[C@H](C)[C@@H](O[C@H]2C[C@@](C)(OC)[C@@H](O)[C@H](C)O2)[C@H](C)[C@@H](O[C@@H]2O[C@H](C)C[C@H](N(C)C)[C@H]2O)[C@](C)(O)C[C@@H](C)CN(C)[C@H](C)[C@@H](O)[C@]1(C)O [AZITHROMYCIN]	0.03 (≈ 0.0401 µM)	128 (≈ 171 µM)	256 (≈ 342 µM)	4 (≈ 5.34 µM)
CC[C@H]1OC(=O)[C@H](C)[C@@H](O[C@H]2C[C@@](C)(OC)[C@@H](OC(=O)NCCc3ccccc3Cl)[C@H](C)O2)[C@H](C)[C@@H](O[C@@H]2O[C@H](C)C[C@H](N(C)C)[C@H]2O)[C@](C)(OC)C[C@@H](C)C(=O)[C@H](C)[C@@H](O)[C@]1(C)O	0.12 (≈ 0.129 µM)	128 (≈ 138 µM)	128 (≈ 138 µM)	4 (≈ 4.3 µM)
CC[C@H]1OC(=O)[C@H](C)[C@@H](O[C@H]2C[C@@](C)(OC)[C@@H](OC(=O)NCc3ccccc3)[C@H](C)O2)[C@H](C)[C@@H](O[C@@H]2O[C@H](C)C[C@H](N(C)C)[C@H]2O)[C@](C)(OC)C[C@@H](C)C(=O)[C@H](C)[C@@H](O)[C@]1(C)O	0.25 (≈ 0.284 µM)	4 (≈ 4.54 µM)	8 (≈ 9.08 µM)	0.25 (≈ 0.284 µM)
CC[C@H]1OC(=O)[C@H](C)[C@@H](O[C@H]2C[C@@](C)(OC)[C@@H](OC(=O)NCCc3ccc(O)cc3)[C@H](C)O2)[C@H](C)[C@@H](O[C@@H]2O[C@H](C)C[C@H](N(C)C)[C@H]2O)[C@](C)(OC)C[C@@H](C)C(=O)[C@H](C)[C@@H](O)[C@]1(C)O	0.03 (≈ 0.0329 µM)	16 (≈ 17.6 µM)	64 (≈ 70.2 µM)	1 (≈ 1.1 µM)
CC[C@H]1OC(=O)[C@H](C)[C@@H](O[C@H]2C[C@@](C)(OC)[C@@H](OC(=O)NCc3ccc(F)cc3)[C@H](C)O2)[C@H](C)[C@@H](O[C@@H]2O[C@H](C)C[C@H](N(C)C)[C@H]2O)[C@](C)(OC)C[C@@H](C)C(=O)[C@H](C)[C@@H](O)[C@]1(C)O	0.06 (≈ 0.0667 µM)	4 (≈ 4.45 µM)	8 (≈ 8.9 µM)	0.5 (≈ 0.556 µM)
CC[C@H]1OC(=O)[C@H](C)[C@@H](O[C@H]2C[C@@](C)(OC)[C@@H](OC(=O)NCCCC(=O)NCc3ccc(F)cc3)[C@H](C)O2)[C@H](C)[C@@H](O[C@@H]2O[C@H](C)C[C@H](N(C)C)[C@H]2O)[C@](C)(OC)C[C@@H](C)C(=O)[C@H](C)[C@@H](O)[C@]1(C)O	0.03 (≈ 0.0305 µM)	1 (≈ 1.02 µM)	2 (≈ 2.03 µM)	0.25 (≈ 0.254 µM)
